Here are results for 1 compound from patent publication US8215314B2, “Photochemical tissue bonding” (The General Hospital Corporation, priority 2000, dated 2012).

SMILES strings stand for the structures.

Assay [1] has as its system partial thickness skin grafts. The experiment in a line: Skin graft adherence after PTB, ex vivo (tensiometer). More on the design: species or system mini pigs. The conditions noted are these: RB concentration 0.1% (w/v) among 0, 0.01, 0.1, 1%. The source says: To test the ability of PTB to quickly and effectively bond skin grafts to a wound site, an ex vivo model utilizing mini pigs was developed. The use of porcine models in wound healing is well known by those skilled in the art. The similarities between porcine wound healing and that of humans enable one to extrapolate the therapeutic results obtained in a porcine model system to a therapeutic result in humans.
Partial thickness skin grafts of approximately 0.020 inch (corresponding to the thick partial-thickness grafts used in clinical situation) were harvested from mini pigs (2 to 7 months old, weight 15 to 43 kgs) after euthanasia. The grafts were temporarily stored by wrapping the graft around gauze, which was soaked in phosphate buffered saline (PBS). […]
The grafts were irradiated using a continuous-wave (CW) argon-ion laser (Innova 100; Coherent, Palo Alto, Calif.) at 514.5 nm. […] The irradiance of laser applied was 0.56 and 1.68 W/cm^2 while the dose-dependent response of the laser fluence from 126 to 504 J/cm^2 was determined. […]
Following the irradiation, the adherence of the skin grafts was tested utilizing a tensiometer (Chartillon) coupled to a force transducer (DFA2, Ametek). The applied force versus the displacement of the force plate was acquired through the transducer and recorded by computer software (Labview 4.0, National Instrument). […]

In assay [2] the test system is corneal incision, rabbit eyes ex vivo. The experiment in a line: IOP required to produce fluid leakage from corneal incision (IOPL) after PTB, ex vivo. The conditions noted are these: for mean IOPL: RB 1.5 mM, 514 nm. On the procedure: PTB can be used to seal or repair a tissue, e.g., a wound, e.g., a corneal wound. This example illustrates the experimental procedure designed to test the efficacy of PTB, as described herein, using mammalian corneas ex vivo. Experiments were performed according to the following procedure.
Rabbit eyes were received on ice (Pel-Freez Biologicals) approximately 17-24 hours after sacrifice and enucleation. The eyes were kept on ice and used the same day. The eye to be studied was mounted on a plastic-covered polystyrene block and fixed in position by needles inserted through the extraocular muscles into the polystyrene. The eye was then placed under a dissecting microscope (Reichert Scientific Instruments, Ill.) allowing visualization of the treated area during the entire procedure. A 27 G needle was inserted parallel to the iris, 2 mm anterior to the limbus into clear cornea, and positioned above the lens in the anterior chamber. The needle was connected to both a blood pressure transducer (Harvard Apparatus, Mass.) and a mini-infuser 400 (Bard Harvard) via a T coupler. The pressure transducer consists of a transducer element that is hard wired to an amplifier box and uses a semi-disposable dome with an integral silicone rubber membrane. Pressure inside the dome is transmitted through the membrane to a plastic button whose motion is translated to a voltage. The voltage generated by the transducer amplifier combination is proportional to the […] intraocular pressure (IOP). Signals from the transducer amplifier were recorded using a Macintosh G3 Power book equipped with a PCMICA (DAQCARD—1200) data acquisition card (National Instruments, Tex.). Data acquisition was controlled using programs written using the LabView 4 software package (National Instruments, Tex.). The voltage from the transducer and amplifier was converted to pressure by calibrating with a standing manometer.
Experiments on individual eyes were initiated by increasing the IOP to 30-40 mm Hg, using water infusion at a rate of 1 mL per minute. An incision was made in the cornea, 1 mm from the limbus and parallel to the iris, using a 3.5 mm angled keratome (Becton Dickinson Co.). For each eye the IOP required to produce fluid leakage from the incision (IOPL) was recorded pre- and post-PTB treatment. A photosensitizer, dissolved in phosphate buffer solution (PBS, pH 7.2, Gibco BRL) was applied to the walls of the incision using a Gastight, 50 μl syringe (Hamilton Co.) with a 27 G needle.
Irradiations employed a continuous wave (CW) argon-ion laser (Innova 100; Coherent, Inc., Palo Alto, Calif.) at 488 nm (for Fl and R-5-P), 514.5 nm (for RB) or 351 nm (for NHPT). An argon-ion-pumped dye laser (CR-599; Coherent) with 4-dicyanomethylene-2-methyl-6-(p-dimethylaminostyryl)-4H-pyran dye (Exciton, Inc., Dayton, Ohio) was used for irradiation at 661 nm (for MB). Laser light was coupled into a 1 mm diameter quartz fiber and a 1 cm diameter spot on the tissue was created by using a combination of 1 and 2 inch focal length, S1-UV grade fused silica, biconvex lenses (Esco Products), mounted in a SM1 series cage assembly (Thorlabs, N.J.). The 1 cm diameter circular spot was sufficient to cover the entire incision and the optics were adjusted so that the laser light was incident on the cornea at an angle approximately 45° to the plane of the incision. Dose response curves were obtained by varying the duration of the irradiation at a constant irradiance. In separate experiments the effects of laser irradiance were investigated by comparison of the same delivered dose using different irradiances. The doses used ranged from 124 to 1524 J/cm^2 and the irradiances used were 0.64, 1.27, 2.55 and 3.86 W/cm^2. The laser exposure time varied from 33 seconds for the lowest dose using the highest irradiance to 26 minutes, 27 seconds for the highest dose using the lowest irradiance. The IOPL was recorded immediately following treatment. […]

With `O=C([O-])c1c(Cl)c(Cl)c(Cl)c(Cl)c1-c1c2cc(I)c(=O)c(I)c-2oc2c(I)c([O-])c(I)cc12.[Na+].[Na+]` [Rose Bengal], in assay [1], the “skin graft adherence levels” value was “optimal increase”. The “mean IOPL post-treatment” value in assay [2] (1.5 mM RB and 514 nm laser light) was “greater than 300±48 mm Hg”. Moreover, the results for the “mean IOPL” value in assay [2] (1270 J/cm^2 at 1.27 W/cm^2), in assay [2] (1270 J/cm^2 at 2.55 W/cm^2) and in assay [2] (1270 J/cm^2 at 3.86 W/cm^2) were 274 mm Hg, 150 mm Hg and 130 mm Hg, respectively. Moreover, the IOPL entry in assay [2] (RB, all doses delivered at 1.27 and 2.55 W/cm^2) is recorded as “greater than 100 mm Hg”. The “rise in IOPL” value in assay [2] (RB, doses below 508 J/cm^2 at any irradiance tested) is “No significant rise”. Besides, the “increase between pre- and post-treatment IOPL” value in assay [2] (photosensitizer alone, no laser irradiation) is “no significant increase”.
